{
  "source": "ChEMBL document CHEMBL1142600",
  "about": "“Production of justicidin B, a cytotoxic arylnaphthalene lignan from genetically transformed root cultures of Linum leonii” (J Nat Prod, 2006)",
  "type_in_all_cases": "functional, cell-based",
  "key": {"K562": {"test_system": "K562", "assay": "Cytotoxicity against human K-562 cells after 72 hrs by MTT assay", "settings": "K562, 72 h"}, "LAMA-84": {"test_system": "LAMA-84", "assay": "Cytotoxicity against human LAMA-84 cells after 72 hrs by MTT assay", "settings": "LAMA-84, 72 h"}, "[1]": {"assay": "Cytotoxicity against human SKW3 cells after 72 hrs by MTT assay", "settings": "SKW3, 72 h"}},
  "data": [
    {"smiles": "COc1cc([C@@H]2c3cc4c(cc3[C@@H](O[C@@H]3O[C@@H]5CO[C@@H](C)O[C@H]5[C@H](O)[C@H]3O)[C@H]3COC(=O)[C@H]23)OCO4)cc(OC)c1O", "note": "[ETOPOSIDE]", "values": [
      {"measurement": "IC50", "setting": "K562", "result": 1870, "unit": "nM"},
      {"measurement": "IC50", "setting": "LAMA-84", "result": 790, "unit": "nM"},
      {"measurement": "IC50", "setting": "[1]", "result": 820, "unit": "nM"}
    ]}
  ]
}
